Reference: patent US8871749B2, “Bone-transplant or bone-filling composition comprising a dihydroxybenzoic acid derivative” (Cellsafe Co., Ltd., priority 2010, dated 2014)
≈ marks a conversion by molar mass, not a printed value.

How the values were obtained:
MC3T3-E1 cells [1] = experiment: Alkaline phosphatase (ALP) activity of osteoblasts; type: cell-based; conditions: 7 days; for activity at 5 µg/mL: Mus musculus, 168 h, compound 5 μg/ml, relative to negative control (100); for ALP activity (in words): 5 μg/ml
Description: After removing the medium, α-MEM supplemented with β-glycerophosphate and ascorbic acid were added thereto as a differentiation-inducing agent for osteoblasts. Each compound of Example 1 was added to the culture medium in the final concentration of 5 μg/ml. The plate containing the cells was cultured for 7 days. 100 μl of a cell lysis buffer (Sigma, Catalog number: MCL1) was added to the cells, which were then incubated at 37° C. for 30 minutes. The resulting mixture (50 μl) was reacted with p-nitrophenyl phosphate as a substrate in a 0.1N glycine-NaOH buffer (pH 9.8), at 37° C. for 30 minutes. Each amount of p-nitrophenol released from the substrate was quantified by measuring an absorbance at 405 nm using an ELISA reader (Bio-Tek instrument). […] The alkaline phosphatase activities were calculated by obtaining relative absorbance differences through comparing with a negative control (no treatment).

MC3T3-E1 cells [2] = experiment: In-vitro bone nodules of osteoblasts (calcium accumulation); type: cell-based; conditions: 27 days; for activity at 5 µg/mL: Mus musculus, 648 h, compound 5 μg/ml, relative to negative control (100); for Calcium accumulation in the cells (in words): 5 μg/ml
Description: MC3T3-E1 cells (RIKEN Cell Bank, Japan) (2×10^3 cells per well) as an osteoblast cell line were placed on each well of a 24-well plate and then cultured for 24 hours. The medium was changed with α-MEM supplemented with β-glycerophosphate and ascorbic acid as a differentiation-inducing agent for osteoblasts. Each compound of Example 1 was added to the culture medium in the final concentration of 5 μg/ml. The plate containing the cells was cultured for 27 days while changing the medium every three days or every four days. […] No treatment was made to the negative control. In order to quantify the amount of calcium accumulated in the cells, the cells were washed with a biological saline, and then calcium (Ca) was extracted with a 0.5N HCl solution for 6 hours on an agitator. The extracted solution (100 μl) was reacted with a Calcium Reagent (Sigma, USA) at room temperature for 5 minutes. […] The amount of calcium accumulated in the cells was calculated by obtaining relative absorbance differences through comparing with a negative control (no treatment).

[3] = system: mandiblar molars transplanted into the kidney of female mouse (C57BL/6); experiment: Alveolar bone formation activity, compound-soaked collagen bead in mandiblar molar transplanted into mouse kidney; type: in vivo; conditions: for response vs control in vivo at 1000 µg/mL: 504 h, collagen bead dipped in 1 mg/ml solution (1-2 μg compound), molar transplanted into mouse kidney, after 3 weeks, stained area vs negative control (100%); for Alveolar bone formation activity (in words): mouse kidney transplant of molar with compound bead, 3 weeks
Description: Each compound of Example 1 was dissolved in a sterile biological saline to obtain a solution having a concentration of 1 mg/ml. Collagen bead (diameter: 1×2 mm, Gibco) used as a bone-grafting material was dipped into each solution at 37° C. for 45 minutes. Each resulting wet bead includes about 1-2 μl of the solution, and therefore 1-2 μg of each compound. Mandiblar molars before tooth-root formation were isolated from mice. The wet bead was inserted in the center of dental pulp of each isolated mandiblar molar, using tweezers. The resulting mandiblar molars were transplanted into the kidney of female mouse (C57BL/6). After 3 weeks, the growing molar teeth were fixed with a formalin solution and then stained with a Morse's solution. The stained sites were visualized under a microscope (Olympus IX71) and then the area was measured with an imageWarp software (London, England). The effects of the compounds on alveolar bone formation were evaluated by comparing with the negative control (100%).

Cytotoxicity test (MTT) = conditions: mouse, L929 cells
Description: (§1) In order to evaluate the cytotoxicities of the compounds designed in Example 1, L929 cells (RIKEN Cell Bank, Japan) (1×10^4 cells per well) were placed on each well of a 96-well plate and then cultured for 12 hours. The cells were treated with each compound in predetermined concentrations and then cultured for 48 hours. After removing the medium, a MTT (3-(4,5-dimethylthiazol-2-yl)-2,5-diphenyltetrazolium bromide) solution (100 μl per well) was added to the cells, which were then incubated for 4 hours. After removing the supernatant, each well was treated with a DMSO solution (100 μl per well) and then incubated at room temperature for 10 minutes for extraction. An absorbance at 550 nm was measured with an ELISA reader (Bio-Tek instrument). The CC50 (Cytotoxic Concentration 50%) values were determined by comparing with a negative control (no treatment).

in vitro = conditions: mouse
Description: as §1

Row | SMILES | activity at 5 µg/mL (MC3T3-E1 cells [1]) | activity at 5 µg/mL (MC3T3-E1 cells [2]) | response vs control in vivo at 1000 µg/mL [3] | CC50 at 48 h (Cytotoxicity test (MTT)) | CC50 at 48 h (in vitro) | ALP activity (in words) (MC3T3-E1 cells [1]) | Calcium accumulation in the cells (in words) (MC3T3-E1 cells [2]) | Alveolar bone formation activity (in words) [3]
1 | O=C(O)c1cccc(O)c1O [NP21, 2,3-dihydroxybenzoic acid] | 147% | 132% | 110% | 150 µg/mL (≈ 973 µM) |  |  |  | 
2 | O=C(O)c1ccc(O)cc1O [NP22, 2,4-dihydroxybenzoic acid] | 153% | 159% | 121% |  | 150 µg/mL (≈ 973 µM) |  |  | 
3 | O=C(O)c1cc(O)ccc1O [NP23, 2,5-dihydroxybenzoic acid] | 152% | 163% | 119% | 200 µg/mL (≈ 1300 µM) |  |  |  | 
4 | CCOC(=O)c1ccc(O)c(O)c1 [NP31, ethyl 3,4-dihydroxybenzoate] | 200% | 180% | 150% | 100 µg/mL (≈ 549 µM) |  |  |  | 
5 | O=C(O)c1cc(O)cc(O)c1 [NP32, 3,5-dihydroxybenzoic acid] | 155% | 163% | 123% | 150 µg/mL (≈ 973 µM) |  |  |  | 
6 | CCOC(=O)c1ccc(O)cc1O [NP33, ethyl 2,4-dihydroxybenzoate] | 430% | 420% | 300% | 100 µg/mL (≈ 549 µM) |  | most excellent ALP activities | most excellent calcium accumulation in the cells | most excellent alveolar bone formation activities
7 | COC(=O)c1ccc(O)cc1O [NP34, methyl 2,4-dihydroxybenzoate] | 149% | 158% | 130% | 150 µg/mL (≈ 892 µM) |  |  |  | 
8 | CCOC(=O)c1cc(O)ccc1O [NP35, ethyl 2,5-dihydroxybenzoate] | 560% | 580% | 450% | 150 µg/mL (≈ 823 µM) |  | most excellent ALP activities | most excellent calcium accumulation in the cells | most excellent alveolar bone formation activities
9 | CCOC(=O)c1c(O)cccc1O [NP36, ethyl 2,6-dihydroxybenzoate] | 157% | 160% | 121% | 200 µg/mL (≈ 1100 µM) |  |  |  | 
10 | CCOC(=O)c1cc(O)cc(O)c1 [NP37, ethyl 3,5-dihydroxybenzoate] | 153% | 159% | 122% | 150 µg/mL (≈ 823 µM) |  |  |  | 
